# How the values were obtained:
# [1] = human, in vivo; cited from earlier work
# [2] = animal study; cited from earlier work
# [3] = oral dosing, set in the multiple-dose PK model; cited from earlier work
# [4] = Two-compartment PK model of osanetant fit to the Sanofi single-dose study; parameters: species or system human; settings: two-compartment model parameter
# Excerpt: Osanetant (SR 142801) is an NK3 receptor antagonist originally identified by Sanofi. Patacchini R. et al. 1995, Eur J Pharmacol 278 (1):17-25; Nguyen-Le X. K. et al. 1996, Pharmacology 52 (5):283-91; Beaujouan J. C. et al. 1997, Eur J Pharmacol 319 (2-3):307-16; Emonds-Alt X. et al. 1995, Life Sci 56 (1):P127-32). Osanetant pharmacokinetics (PK) was derived from a Study Report by Sanofi describing concentration curves and PK summary data. A two-compartment PK model was derived from the data the concentration: time curves. […] A two-compartment pharmacokinetic model was fit to the single-dose study in the Sanofi Study report.
# CYP3A4 = CYP3A4 (Homo sapiens, UniProt P08684); settings: liver; cited from earlier work
# CYP2D6 = CYP2D6 (Homo sapiens, UniProt P10635); settings: cited from earlier work
# CYP2D6, sequence (P10635 whole entry): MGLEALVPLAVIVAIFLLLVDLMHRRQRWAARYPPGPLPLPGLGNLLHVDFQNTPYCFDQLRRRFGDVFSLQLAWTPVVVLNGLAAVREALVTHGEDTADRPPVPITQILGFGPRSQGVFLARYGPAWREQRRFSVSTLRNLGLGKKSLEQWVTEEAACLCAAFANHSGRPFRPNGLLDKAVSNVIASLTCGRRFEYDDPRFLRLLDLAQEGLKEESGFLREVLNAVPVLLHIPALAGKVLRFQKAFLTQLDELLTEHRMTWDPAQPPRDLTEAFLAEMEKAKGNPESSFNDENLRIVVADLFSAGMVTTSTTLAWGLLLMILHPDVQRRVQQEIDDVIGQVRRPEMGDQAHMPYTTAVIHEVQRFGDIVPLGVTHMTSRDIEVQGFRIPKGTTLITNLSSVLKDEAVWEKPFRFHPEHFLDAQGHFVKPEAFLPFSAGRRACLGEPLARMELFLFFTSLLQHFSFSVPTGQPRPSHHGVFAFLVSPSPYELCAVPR
# CYP3A4, sequence (P08684 whole entry): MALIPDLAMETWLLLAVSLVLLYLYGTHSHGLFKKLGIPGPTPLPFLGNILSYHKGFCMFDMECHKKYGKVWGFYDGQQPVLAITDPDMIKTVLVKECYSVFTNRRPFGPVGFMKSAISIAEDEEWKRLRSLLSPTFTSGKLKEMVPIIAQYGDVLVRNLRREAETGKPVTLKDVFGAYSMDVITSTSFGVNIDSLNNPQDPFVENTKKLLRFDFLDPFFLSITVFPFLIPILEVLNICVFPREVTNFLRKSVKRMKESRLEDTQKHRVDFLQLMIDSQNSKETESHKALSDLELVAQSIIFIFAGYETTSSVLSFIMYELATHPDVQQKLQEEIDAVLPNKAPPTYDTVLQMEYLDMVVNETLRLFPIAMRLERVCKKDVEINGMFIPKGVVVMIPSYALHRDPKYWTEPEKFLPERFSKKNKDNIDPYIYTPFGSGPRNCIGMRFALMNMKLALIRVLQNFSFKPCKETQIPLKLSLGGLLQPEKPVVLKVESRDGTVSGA
Blood_Liver_transport_k [4],Q [4],Vol_central [4],Vol_periph [4],ka [4],SMILES,patients who experience increased frequency and/or duration of VMS [1],Brain/plasma concentration [2],Bioavailability [3],clearance mechanism (CYP3A4),CYP2D6 activity (CYP2D6)
–,–,–,–,–,CCNC(=O)[C@@H]1CCCN1C(=O)[C@H](CCCNC(=N)N)NC(=O)[C@H](CC(C)C)NC(=O)[C@@H](CC(C)C)NC(=O)[C@H](Cc1ccc(O)cc1)NC(=O)[C@H](CO)NC(=O)[C@H](Cc1c[nH]c2ccccc12)NC(=O)[C@H](Cc1c[nH]cn1)NC(=O)[C@@H]1CCC(=O)N1 [leuprolide],about 80%,–,–,–,–
0.011 min⁻¹,13.9 L/min,620 L,1768 L,0.039 min⁻¹,"CC(=O)N(C)C1(c2ccccc2)CCN(CCC[C@]2(c3ccc(Cl)c(Cl)c3)CCCN(C(=O)c3ccccc3)C2)CC1 [osanetant, (R)—N-(1-(3-(1-benzoyl-3-(3,4-dichlorophenyl)piperidin-3-yl)propyl)-4-phenylpiperidin-4-yl)-N-methylacetamide]",–,0.8,40%,CYP3A4 metabolism in the liver is the primary clearance mechanism,inhibits CYP2D6 activity
